According to paper PMC11542786, “Isoscopoletin inhibits hepatocellular carcinoma cell proliferation via regulating glycolysis-related proteins” (PLOS ONE, 2024):

Columns and labels:
Assay in all cases: microscale thermophoresis
Assay type in all cases: binding
GPI = target: T1, GPI (Homo sapiens, UniProt P06744)
T1 construct: labelled with DyLight 488 for MST

Hsp90α = target: T2, Hsp90α (Homo sapiens, UniProt P07900)
T2 construct: gene HSP90AA1; labelled with DyLight 488 for MST

GPD2 = target: T3, GPD2 (Homo sapiens, UniProt P43304)
T3 construct: labelled with DyLight 488 for MST; docking model 1x0v is not the assayed protein
T3 sequence (P43304 43-727): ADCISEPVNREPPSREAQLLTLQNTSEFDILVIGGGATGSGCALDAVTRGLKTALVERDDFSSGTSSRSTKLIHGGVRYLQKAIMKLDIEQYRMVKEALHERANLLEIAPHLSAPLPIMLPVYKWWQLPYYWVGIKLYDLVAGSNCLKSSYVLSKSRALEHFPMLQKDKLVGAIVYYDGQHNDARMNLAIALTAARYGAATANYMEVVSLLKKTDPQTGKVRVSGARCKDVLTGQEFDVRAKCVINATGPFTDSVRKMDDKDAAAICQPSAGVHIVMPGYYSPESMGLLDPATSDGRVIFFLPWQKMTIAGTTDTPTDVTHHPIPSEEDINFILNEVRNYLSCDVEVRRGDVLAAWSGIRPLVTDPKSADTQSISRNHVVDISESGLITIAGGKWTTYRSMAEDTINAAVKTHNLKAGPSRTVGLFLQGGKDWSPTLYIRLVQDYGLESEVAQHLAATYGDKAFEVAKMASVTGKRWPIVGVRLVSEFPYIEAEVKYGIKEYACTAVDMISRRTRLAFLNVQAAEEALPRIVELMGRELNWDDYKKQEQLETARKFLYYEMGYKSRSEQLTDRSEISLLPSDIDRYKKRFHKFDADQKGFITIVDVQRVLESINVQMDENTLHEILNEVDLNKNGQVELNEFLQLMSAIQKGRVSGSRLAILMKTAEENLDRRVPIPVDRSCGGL

PGK2 = target: T4, PGK2 (Homo sapiens, UniProt P07205)
T4 construct: labelled with DyLight 488 for MST; docking model 2paa is not the assayed protein
T4 sequence (P07205 2-417): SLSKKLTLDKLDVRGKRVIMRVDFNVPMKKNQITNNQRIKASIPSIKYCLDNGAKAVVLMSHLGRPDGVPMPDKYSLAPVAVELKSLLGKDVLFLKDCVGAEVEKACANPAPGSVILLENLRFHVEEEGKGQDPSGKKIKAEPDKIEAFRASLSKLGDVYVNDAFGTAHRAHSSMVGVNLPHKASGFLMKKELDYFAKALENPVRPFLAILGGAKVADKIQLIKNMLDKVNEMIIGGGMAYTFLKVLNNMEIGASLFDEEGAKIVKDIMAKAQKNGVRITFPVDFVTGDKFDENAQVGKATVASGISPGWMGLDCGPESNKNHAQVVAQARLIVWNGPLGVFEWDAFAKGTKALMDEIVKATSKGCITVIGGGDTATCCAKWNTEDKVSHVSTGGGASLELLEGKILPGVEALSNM

Kd (GPI): 1.35 mM
Kd (Hsp90α): 52.2 mM
Kd (GPD2): 13.4 mM
Kd (PGK2): 3.22 mM
Structure (SMILES): COc1cc2oc(=O)ccc2cc1O [Isoscopoletin]
